Laboratory results taken from publication PMC3591338, “Kinetics of Isomerization and Inversion of Aspartate 58 of αA-Crystallin Peptide Mimics under Physiological Conditions” (PLoS ONE, 2013).
Where a SMILES comes first, the peptide text is derived from it.

test: Heating experiments: succinimide formation (dehydration) from Asp isomer peptides; format: physicochemical; conditions: chemical stability, PBS pH 7.4, 70°C, RP-HPLC peak areas, 215 nm
Experimental: To determine the rate constant for the conversion the Asp isomers to succinimides in the T6 peptide, the T6-Lα, T6-Lβ, T6-Dα and T6-Dβ peptides were dissolved in PBS (pH7.4) and were incubated at 50, 60, 70, 80, and 90°C for 0.4–31 days.
After the incubation of the 4 isomeric peptides, these peptides were subjected to HPLC. Since the four isomeric T6 peptides are clearly separated by RP-HPLC chromatography, we can measure the relative amounts of the peptides produced by the incubation from the peak areas of the 4 isomeric peptides in the chromatogram. The results are as follows: [drawing 11] (4 - 1) [drawing 12] (4 - 2) [drawing 13] (4 - 3) [drawing 14] (4 - 4) where [L-α-Asp]%, [L-β-Asp]%, [D-α-Asp]%, and [D-β-Asp]% are relative amounts (%) of L-α-Asp, L-β-Asp, D-α-Asp and D-β-Asp, and [L-α-Asp], [L-β-Asp], [D-α-Asp] and [D-β-Asp] represent the concentration of L-α-Asp, L-β-Asp, D-α-Asp and D-β-Asp respectively, which are calculated from the peak area in the RP-HPLC chromatogram. We plotted the relative amounts against incubation time. Subsequently, we drew fitted curves for this plot as follows:f1(t) for L-α-Asp, f2(t) for L-β-Asp, f3(t) for D-α-Asp, f4(t) for D-β-Asp.
The rate constants of the conversion of the peptide isomers can be expressed as follows: [drawing 15] (5 - 1) [drawing 16] (5 - 2) [drawing 17] (5 - 3) [drawing 18] (5 - 4) where [L-succinimide]% and [D-succinimide]% represent the relative amounts of L-succinimide and D-succinimide as a percentage, t is time (day), k1 is the rate constant for the conversion of L-α-Asp to L-succinimide (day^−1), k2 is the rate constant for the conversionof L-succinimide to L-α-Asp (day^−1), k3 is the rate constant for the conversion of L-β-Asp to L-succinimide (day^−1), k4 is the rate constant for the conversion of L-succinimide to L-β-Asp (day^−1), k5 is the rate constant for the conversion of D-α-Asp to D-succinimide (day^−1), k6 is the rate constant for the conversion of D-succinimide to D-α-Asp (day^−1), k7 is the rate constant for the conversion of D-β-Asp to D-succinimide (day^−1), k8 is the rate constant for the conversion of D-succinimide to D-β-Asp (day^−1), and f1’(t), f2’(t), f3’(t) and f4’(t) are derivatives of f1(t), f2(t), f3(t) and f4(t). At t = 0 day, [L-α-Asp]% and [L-succinimide]% are 100% and 0% respectively, therefore, Eq. (5-1) can be expressed as: […]
We determined k1, k3, k5 and k7 at five temperatures (50, 60, 70, 80 and 90°C) by using Eq. (6-1), (6-2), (6-3), (6-4). The Arrhenius equation shown below gives the activation energy of the degradation reaction. [drawing 23] […] From Eq. (7), we calculated k1, k3, k5 and k7 at 37°C using k1, k3, k5 and k7 from five temperatures (50, 60, 70, 80 and 90°C).

amount of peptide remaining after 10 days of incubation at 70°C | SMILES
40% | CC[C@H](C)[C@H](NC(=O)CNC(=O)[C@H](CO)NC(=O)[C@@H](CC(=O)O)NC(=O)[C@H](CC(C)C)NC(=O)[C@@H](NC(=O)[C@@H](N)[C@@H](C)O)C(C)C)C(=O)N[C@@H](CO)C(=O)N[C@@H](CCC(=O)O)C(=O)N[C@H](C(=O)N[C@@H](CCCNC(=N)N)C(=O)O)C(C)C [T6-Dα] (HELM PEPTIDE1{T.V.L.[dD].S.G.I.S.E.V.R}$$$$V2.0)
more than 80% | CC[C@H](C)[C@H](NC(=O)CNC(=O)[C@H](CO)NC(=O)C[C@@H](NC(=O)[C@H](CC(C)C)NC(=O)[C@@H](NC(=O)[C@@H](N)[C@@H](C)O)C(C)C)C(=O)O)C(=O)N[C@@H](CO)C(=O)N[C@@H](CCC(=O)O)C(=O)N[C@H](C(=O)N[C@@H](CCCNC(=N)N)C(=O)O)C(C)C [T6-Dβ] (HELM PEPTIDE1{T.V.L.[O=C(O)[C@@H](CC(=O)[*:2])N[*:1]].S.G.I.S.E.V.R}$$$$V2.0)
30% | CC[C@H](C)[C@H](NC(=O)CNC(=O)[C@H](CO)NC(=O)[C@H](CC(=O)O)NC(=O)[C@H](CC(C)C)NC(=O)[C@@H](NC(=O)[C@@H](N)[C@@H](C)O)C(C)C)C(=O)N[C@@H](CO)C(=O)N[C@@H](CCC(=O)O)C(=O)N[C@H](C(=O)N[C@@H](CCCNC(=N)N)C(=O)O)C(C)C [T6-Lα] (H-TVLDSGISEVR-OH)
more than 80% | CC[C@H](C)[C@H](NC(=O)CNC(=O)[C@H](CO)NC(=O)C[C@H](NC(=O)[C@H](CC(C)C)NC(=O)[C@@H](NC(=O)[C@@H](N)[C@@H](C)O)C(C)C)C(=O)O)C(=O)N[C@@H](CO)C(=O)N[C@@H](CCC(=O)O)C(=O)N[C@H](C(=O)N[C@@H](CCCNC(=N)N)C(=O)O)C(C)C [T6-Lβ] (HELM PEPTIDE1{T.V.L.[O=C(O)[C@H](CC(=O)[*:2])N[*:1]].S.G.I.S.E.V.R}$$$$V2.0)
